Source: ChEMBL document CHEMBL5647694, “Novel orally bioavailable EZH1/2 dual inhibitors with greater antitumor efficacy than an EZH2 selective inhibitor” (Cancer Sci, 2017)
Active and inactive are the calls of the source. No cut-off for these calls is given here.

What was measured:
[1] = Toxicity in Crl:CD Sprague-Dawley rat assessed as globulin level in blood at 100 mg/kg, po administered daily for 14 days (reference value: 1.6 +/-0.082 g/dL); type: organism-based; conditions: in vivo, 336 h, time 14 day
KARPAS-422 = experiment: Antitumor activity against human KARPAS-422 cells xenografted in CB17/Icr-Prkdcscid/CrlCrlj mouse assessed as inhibition of tumor growth at 50 mg/kg, po BID for 14 days and measured after cessation of drug treatment; type: functional, organism-based; conditions: time 14.0 day
[2] = Toxicity in Crl:CD Sprague-Dawley rat assessed as creatinine level in blood at 100 mg/kg, po administered daily for 14 days (reference value: 0.223 +/-[…]); type: organism-based; conditions: in vivo, 336 h, time 14 day
[3] = Toxicity in Crl:CD Sprague-Dawley rat assessed as total bilirubin level in blood at 100 mg/kg, po administered daily for 14 days (reference value: 0.003+/-0.005 mg/dL); type: organism-based; conditions: in vivo, 336 h, time 14 day
[4] = Toxicity in Crl:CD Sprague-Dawley rat assessed as mean corpuscular volume in blood at 100 mg/kg, po administered daily for 14 days (reference value: 61.5 +/-1.92 fL); type: organism-based; conditions: in vivo, 336 h, time 14 day
Mus musculus = experiment: In vivo inhibition of EZH1/2 in CB17/Icr-Prkdcscid/CrlCrlj mouse xenografted with human KARPAS-422 cells assessed as decrease in H3K27me3 level in tumor at 3.1 to 50 mg/kg, po BID for 14 days and measured 1 day after cessation of drug dosing; type: functional, organism-based; conditions: dose 3.1-50 mg/kg, time 14.0 day
[5] = Toxicity in Crl:CD Sprague-Dawley rat assessed as alkaline phosphatase level in blood at 100 mg/kg, po administered daily for 14 days (reference value: 1340+/-199 U/L); type: organism-based; conditions: in vivo, 336 h, time 14 day
[6] = Toxicity in Crl:CD Sprague-Dawley rat assessed as calcium level in blood at 100 mg/kg, po administered daily for 14 days (reference value: 10.1 +/-0.096 mg/dL); type: organism-based; conditions: in vivo, 336 h, time 14 day
[7] = Toxicity in Crl:CD Sprague-Dawley rat assessed as hemoglobin level in blood at 100 mg/kg, po administered daily for 14 days (reference value: 13.5 +/-0.386 g/dL); type: organism-based; conditions: in vivo, 336 h, time 14 day
[8] = Antitumor activity against human COV434 cells assessed as cell growth inhibition treated for 10 to 15 days; type: functional; conditions: time 10-15 day
HCC1806 = experiment: Antitumor activity against human HCC1806 cells assessed as cell growth inhibition treated for 10 to 15 days; type: functional; conditions: time 10-15 day
U-266 = experiment: Antitumor activity against human U266B1 cells assessed as cell growth inhibition treated for 10 to 15 days; type: functional; conditions: time 10-15 day
HCC1143 = experiment: Antitumor activity against human HCC1143 cells assessed as cell growth inhibition treated for 10 to 15 days; type: functional; conditions: time 10-15 day
RPMI-6666 = experiment: Antitumor activity against human RPMI-6666 cells assessed as cell growth inhibition treated for 10 to 15 days; type: functional; conditions: time 10-15 day
LS-513 = experiment: Antitumor activity against human LS-513 cells assessed as cell growth inhibition treated for 10 to 15 days; type: functional; conditions: time 10-15 day
LNCaP-Clone-FGC = experiment: Antitumor activity against human LNCaP clone FGC cells assessed as cell growth inhibition treated for 10 to 15 days; type: functional; conditions: time 10-15 day
NCI-H1436 = experiment: Antitumor activity against human NCI-H1436 cells assessed as cell growth inhibition treated for 10 to 15 days; type: functional; conditions: time 10-15 day
[9] = biological target: CDK7/Cyclin H/MNAT1 (Homo sapiens) (UniProt P51946+P50613+P51948); experiment: Inhibition of N-terminal GST-tagged full length human CDK7 (1 to 346 residues)/human CyclinH (1 to 323 residues)/human MAT1 (1 to 309 residues) expressed in baculovirus-infected Sf21 cells using CTD3 peptide as substrate at 1 uM in presence of ATP by Mobility shift assay
CA46 = experiment: Antitumor activity against human CA46 cells assessed as cell growth inhibition treated for 10 to 15 days; type: functional; conditions: time 10-15 day
MDA-MB-415 = experiment: Antitumor activity against human MDA-MB-415 cells assessed as cell growth inhibition treated for 10 to 15 days; type: functional; conditions: time 10-15 day
A704 = experiment: Antitumor activity against human A704 cells assessed as cell growth inhibition treated for 10 to 15 days; type: functional; conditions: time 10-15 day
HCC1937 = experiment: Antitumor activity against human HCC1937 cells assessed as cell growth inhibition treated for 10 to 15 days; type: functional; conditions: time 10-15 day
KG-1 = experiment: Antitumor activity against human KG-1 cells assessed as cell growth inhibition treated for 10 to 15 days; type: functional; conditions: time 10-15 day
ZR-75-30 = experiment: Antitumor activity against human ZR-75-30 cells assessed as cell growth inhibition treated for 10 to 15 days; type: functional; conditions: time 10-15 day
NCI-H520 = experiment: Antitumor activity against human NCI-H520 cells assessed as cell growth inhibition treated for 10 to 15 days; type: functional; conditions: time 10-15 day
OCI-LY19 = experiment: Antitumor activity against human OCILY19 cells assessed as cell growth inhibition treated for 10 to 15 days; type: functional; conditions: time 10-15 day
[10] = biological target: Histone-lysine N-methyltransferase, H3 lysine-79 specific (Homo sapiens, UniProt Q8TEK3); experiment: Inhibition of human DOT1L using Nucleosomes and [3H]SAM as substrate incubated for 30 mins to 1 hr by HotSpot kinase assay
Chain of Histone-lysine N-methyltransferase, H3 lysine-79 specific (Q8TEK3 whole entry): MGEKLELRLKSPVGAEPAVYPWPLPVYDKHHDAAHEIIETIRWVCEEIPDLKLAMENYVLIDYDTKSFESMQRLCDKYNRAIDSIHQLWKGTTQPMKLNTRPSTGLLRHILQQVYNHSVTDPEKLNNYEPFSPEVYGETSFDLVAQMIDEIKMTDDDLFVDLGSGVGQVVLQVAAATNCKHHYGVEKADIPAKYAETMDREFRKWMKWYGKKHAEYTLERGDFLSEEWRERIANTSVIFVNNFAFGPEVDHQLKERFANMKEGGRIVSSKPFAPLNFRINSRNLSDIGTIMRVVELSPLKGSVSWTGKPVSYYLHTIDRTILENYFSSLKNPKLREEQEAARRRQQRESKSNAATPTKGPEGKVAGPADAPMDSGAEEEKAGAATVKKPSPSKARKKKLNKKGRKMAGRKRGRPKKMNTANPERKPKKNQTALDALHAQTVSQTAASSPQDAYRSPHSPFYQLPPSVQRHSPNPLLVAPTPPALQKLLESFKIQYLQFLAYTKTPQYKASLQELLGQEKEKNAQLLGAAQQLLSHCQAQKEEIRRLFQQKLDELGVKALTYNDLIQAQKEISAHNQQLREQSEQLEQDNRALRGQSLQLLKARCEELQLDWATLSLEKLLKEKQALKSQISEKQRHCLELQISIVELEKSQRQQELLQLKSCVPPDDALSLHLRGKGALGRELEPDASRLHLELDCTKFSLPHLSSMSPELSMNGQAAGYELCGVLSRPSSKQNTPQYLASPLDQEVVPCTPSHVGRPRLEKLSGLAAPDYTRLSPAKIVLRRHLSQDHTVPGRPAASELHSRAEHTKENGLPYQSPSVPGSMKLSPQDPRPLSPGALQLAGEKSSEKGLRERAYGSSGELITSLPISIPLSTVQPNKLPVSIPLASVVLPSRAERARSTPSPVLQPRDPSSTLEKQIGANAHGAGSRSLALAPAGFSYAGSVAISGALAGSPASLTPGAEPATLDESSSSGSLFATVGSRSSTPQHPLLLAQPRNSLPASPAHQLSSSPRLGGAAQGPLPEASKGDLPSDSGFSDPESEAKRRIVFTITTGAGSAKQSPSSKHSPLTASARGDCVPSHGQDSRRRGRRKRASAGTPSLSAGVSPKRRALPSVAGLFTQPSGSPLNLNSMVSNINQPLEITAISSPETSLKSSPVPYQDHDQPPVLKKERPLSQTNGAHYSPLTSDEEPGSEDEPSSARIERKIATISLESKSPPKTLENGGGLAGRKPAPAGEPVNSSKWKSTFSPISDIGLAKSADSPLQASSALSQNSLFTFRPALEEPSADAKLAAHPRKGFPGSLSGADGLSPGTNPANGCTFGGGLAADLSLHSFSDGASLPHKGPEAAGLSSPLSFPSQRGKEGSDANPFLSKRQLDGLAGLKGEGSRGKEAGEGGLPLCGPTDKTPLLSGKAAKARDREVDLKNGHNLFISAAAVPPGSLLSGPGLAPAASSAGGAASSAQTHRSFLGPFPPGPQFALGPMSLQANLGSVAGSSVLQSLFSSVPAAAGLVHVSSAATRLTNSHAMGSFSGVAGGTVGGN

DU-4475 = experiment: Antitumor activity against human DU-4475 cells assessed as cell growth inhibition treated for 10 to 15 days; type: functional; conditions: time 10-15 day
[11] = biological target: Histone-arginine methyltransferase CARM1 (Homo sapiens, UniProt Q86X55); experiment: Inhibition of human PRMT4 using Histone H3 and [3H]SAM as substrate incubated for 30 mins to 1 hr by HotSpot kinase assay
Chain of Histone-arginine methyltransferase CARM1 (Q86X55 whole entry): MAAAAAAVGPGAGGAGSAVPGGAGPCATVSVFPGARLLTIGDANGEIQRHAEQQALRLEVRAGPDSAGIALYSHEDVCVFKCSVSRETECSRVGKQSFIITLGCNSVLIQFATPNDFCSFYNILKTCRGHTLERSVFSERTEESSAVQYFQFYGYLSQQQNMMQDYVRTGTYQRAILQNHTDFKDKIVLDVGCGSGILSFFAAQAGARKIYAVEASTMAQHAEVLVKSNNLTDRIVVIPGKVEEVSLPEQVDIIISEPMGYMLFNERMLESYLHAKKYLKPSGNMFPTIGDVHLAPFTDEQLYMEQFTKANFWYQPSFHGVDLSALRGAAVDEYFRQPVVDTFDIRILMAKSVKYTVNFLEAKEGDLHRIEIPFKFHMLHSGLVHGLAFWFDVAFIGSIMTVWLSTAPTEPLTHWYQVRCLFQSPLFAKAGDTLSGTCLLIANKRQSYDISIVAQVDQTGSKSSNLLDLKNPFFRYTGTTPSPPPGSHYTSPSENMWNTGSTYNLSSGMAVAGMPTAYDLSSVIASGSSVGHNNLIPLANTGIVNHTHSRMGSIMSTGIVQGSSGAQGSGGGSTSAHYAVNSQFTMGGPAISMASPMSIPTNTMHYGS

NCI-H1092 = experiment: Antitumor activity against human NCI-H1092 cells assessed as cell growth inhibition treated for 10 to 15 days; type: functional; conditions: time 10-15 day
[12] = biological target: Protein arginine N-methyltransferase 3 (Homo sapiens, UniProt O60678); experiment: Inhibition of human PRMT3 using Histone H4 and [3H]SAM as substrate incubated for 30 mins to 1 hr by HotSpot kinase assay
Chain of Protein arginine N-methyltransferase 3 (O60678 whole entry): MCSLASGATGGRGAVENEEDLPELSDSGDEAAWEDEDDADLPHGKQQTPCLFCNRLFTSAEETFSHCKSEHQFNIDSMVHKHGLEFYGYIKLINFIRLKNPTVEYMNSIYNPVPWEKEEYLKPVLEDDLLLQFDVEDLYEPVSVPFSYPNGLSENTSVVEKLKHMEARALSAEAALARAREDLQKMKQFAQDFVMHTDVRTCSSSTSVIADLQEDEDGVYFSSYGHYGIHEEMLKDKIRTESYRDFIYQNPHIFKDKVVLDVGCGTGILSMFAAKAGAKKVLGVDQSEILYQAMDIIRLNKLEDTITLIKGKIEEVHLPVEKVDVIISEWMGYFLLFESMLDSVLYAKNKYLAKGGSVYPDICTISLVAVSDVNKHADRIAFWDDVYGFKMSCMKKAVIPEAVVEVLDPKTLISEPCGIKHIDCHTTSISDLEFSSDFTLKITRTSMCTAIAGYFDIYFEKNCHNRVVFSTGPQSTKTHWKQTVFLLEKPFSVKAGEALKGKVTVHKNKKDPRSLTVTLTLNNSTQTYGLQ

CW-2 = experiment: Antitumor activity against human CW-2 cells assessed as cell growth inhibition treated for 10 to 15 days; type: functional; conditions: time 10-15 day
Kasumi 1 = experiment: Antitumor activity against human Kasumi 1 cells assessed as cell growth inhibition treated for 10 to 15 days; type: functional; conditions: time 10-15 day
[13] = Antitumor activity against human MINO cells assessed as cell growth inhibition treated for 10 to 15 days; type: functional; conditions: time 10-15 day
[14] = Antitumor activity against human OVISE cells assessed as cell growth inhibition treated for 10 to 15 days; type: functional; conditions: time 10-15 day
Ramos = experiment: Antitumor activity against human Ramos cells assessed as cell growth inhibition treated for 10 to 15 days; type: functional; conditions: time 10-15 day
SK-BR-3 = experiment: Antitumor activity against human SK-BR-3 cells assessed as cell growth inhibition treated for 10 to 15 days; type: functional; conditions: time 10-15 day
[15] = Antitumor activity against human HuT 102 cells assessed as cell growth inhibition treated for 10 to 15 days; type: functional; conditions: time 10-15 day
CWR22R = experiment: Antitumor activity against human 22Rv1 cells assessed as cell growth inhibition treated for 10 to 15 days; type: functional; conditions: time 10-15 day
UACC-812 = experiment: Antitumor activity against human UACC-812 cells assessed as cell growth inhibition treated for 10 to 15 days; type: functional; conditions: time 10-15 day

## Cc1cc(C)c(CNC(=O)c2cc(Br)c3c(c2C)O[C@@](C)([C@H]2CC[C@H](N(C)C)CC2)O3)c(=O)[nH]1
[1]
  Activity: 1.55 g/dL
KARPAS-422
  Activity: Active
[2]
  Activity: 0.238 mg/dL
[3]
  Activity: 0.028 mg/dL
[4]
  Activity: 60.9 fL
Mus musculus
  inhibition: Active
[5]
  Activity: 1120 U/L
[6]
  Activity: 9.88 mg/dL
[7]
  Activity: 13 g/dL

## Cc1cc(C)c(CNC(=O)c2cc(Cl)c3c(c2C)O[C@@](C)([C@H]2CC[C@H](N(C)C)CC2)O3)c(=O)[nH]1 [VALEMETOSTAT]
[8]
  GI50: 1.5 nM
HCC1806
  GI50: > 1000 nM
U-266
  GI50: 6.88 nM
HCC1143
  GI50: > 1000 nM
RPMI-6666
  GI50: 68.4 nM
LS-513
  GI50: > 1000 nM
LNCaP-Clone-FGC
  GI50: 5.53 nM
NCI-H1436
  GI50: 216 nM
[9]
  inhibition: -6.7%
CA46
  GI50: 296 nM
MDA-MB-415
  GI50: 24.7 nM
A704
  GI50: > 1000 nM
HCC1937
  GI50: > 1000 nM
KG-1
  GI50: 700 nM
ZR-75-30
  GI50: > 1000 nM
NCI-H520
  GI50: > 1000 nM
OCI-LY19
  GI50: > 1000 nM
[10]
  IC50: 100000 nM
DU-4475
  GI50: > 1000 nM
[11]
  IC50: 100000 nM
NCI-H1092
  GI50: > 1000 nM
[12]
  IC50: 100000 nM
CW-2
  GI50: > 1000 nM
Kasumi 1
  GI50: 70 nM
[13]
  GI50: 20.7 nM
[14]
  GI50: > 1000 nM
Ramos
  GI50: > 1000 nM
SK-BR-3
  GI50: 6.38 nM
[15]
  GI50: 0.987 nM
CWR22R
  GI50: 37.7 nM
UACC-812
  GI50: > 1000 nM
